Paper doi:10.1101/2025.02.17.638454, “Synergistic RAS-MAPK and AKT Activation in MYC-Driven Tumors via Adjacent PVT1 Rearrangements” (bioRxiv, 2025)
No end group written: not given here.

Experiments:
[1] = tested on: phospho-MEK1/2, phospho-ERK1/2, phospho-p90RSK (RAS/MAPK pathway); assay: Western blot of RAS/MAPK effectors in NCI-H1792; assay type: cell-based; settings: NCI-H1792 (mutant KRAS^G12C), doxycycline-induced HNB, 1 μg/mL Dox 48 h
Description: (§1) For whole-cell lysate, the cell pellet was resuspended in RIPA buffer (Cell Signaling Technologies, Danvers, MA) supplemented with a protease inhibitor cocktail (Cell Signaling Technologies) and incubated on ice for 20 minutes. The lysate was then centrifuged at 14,000 revolutions/minute for 10 minutes at 4°C, and the supernatant was harvested. Protein concentration was quantified by BCA Protein Assay Kit (Thermo Fisher Scientific) as per kit protocol. Next, 20 μg of whole-cell lysate was electrophoresed on a 4%–20% gradient polyacrylamide gel with SDS (Bio-Rad, Hercules, CA) and electroblotted onto polyvinylidene difluoride membranes (Bio-Rad). Membranes were blocked in Tris-buffered saline with 5% nonfat milk and 0.1% Tween and probed with antibodies. Bound proteins were detected with horseradish-peroxidase–conjugated secondary antibodies (Cell Signaling Technologies) and SuperSignal West Femto (Thermo Fisher Scientific). […]
(§2) The HNB ORF and eGFP (control) were cloned in an inducible lentivirus expression, TRE-gateway plasmid (pLIX_403, Addgene, #41395). […] The protein lysates were collected and quantified using the previously described protocol. […] Bound proteins were detected with horseradish-peroxidase–conjugated secondary antibodies (Cell Signaling Technologies) and SuperSignal West Femto (Thermo Fisher Scientific). […]

D458 cells = assay: Proliferation assay D458; assay type: cell-based, human
COLO-320DM cells = assay: Proliferation assay COLO-320DM; assay type: cell-based, human; settings: COLO320DM
MYC [2] = assay: Western blot of MYC in D458; assay type: cell-based, human
Description: For whole-cell lysate, the cell pellet was resuspended in RIPA buffer (Cell Signaling Technologies, Danvers, MA) supplemented with a protease inhibitor cocktail (Cell Signaling Technologies) and incubated on ice for 20 minutes. The lysate was then centrifuged at 14,000 revolutions/minute for 10 minutes at 4°C, and the supernatant was harvested. Protein concentration was quantified by BCA Protein Assay Kit (Thermo Fisher Scientific) as per kit protocol. Next, 20 μg of whole-cell lysate was electrophoresed on a 4%–20% gradient polyacrylamide gel with SDS (Bio-Rad, Hercules, CA) and electroblotted onto polyvinylidene difluoride membranes (Bio-Rad). Membranes were blocked in Tris-buffered saline with 5% nonfat milk and 0.1% Tween and probed with antibodies. Bound proteins were detected with horseradish-peroxidase–conjugated secondary antibodies (Cell Signaling Technologies) and SuperSignal West Femto (Thermo Fisher Scientific). Antibodies used were anti-c-MYC (Cell Signaling Technology, 5605, anti-Phospho-c-MYC (Ser62) (Cell Signaling Technology, 13748), anti-β ACTIN (Cell Signaling Technology, 8457), anti-Phospho-p44/42 (Erk1/2) (Thr202/Tyr204) (Cell Signaling Technology, 4370), anti-p44/42 (Erk1/2) (Cell Signaling Technology, 4695), anti-Phospho-MEK1/2 (Ser217/221) (Cell Signaling Technology, 9154), anti-MEK1/2 (Cell Signaling Technology, 9122), anti-Phospho-p90RSK (Ser380) (Cell Signaling Technology, 11989), anti-RSK1/RSK2/RSK3 (Cell Signaling Technology, 9355), Anti-Rabbit IgG, HRP-linked Antibody (Cell Signaling Technology, 7074). Anti-FFX (Firefox) monoclonal antibodies were custom produced by Proteintech using FFX residues 13–104 as epitope.
The HNB ORF and eGFP (control) were cloned in an inducible lentivirus expression, TRE-gateway plasmid (pLIX_403, Addgene, #41395). Lentivirus was produced in HEK293T cells using the protocol described above. D458, NCI-H1792 and COLO 320DM cells were transfected with inducible HNB lentivirus and selected with 1 μg/mL concentration of Puromycin. Selected cells were seeded at a concentration of 4 × 10^5 cells per well. After 24 hours of seeding, the cells were treated with 1 μg/mL Doxycycline for 48 hours. The cells were then lysed using RIPA buffer and 1X protease inhibitor cocktail. The protein lysates were collected and quantified using the previously described protocol. 20 μg of whole-cell lysate was electrophoresed on a 4%–20% gradient polyacrylamide gel with SDS (Bio-Rad, Hercules, CA) and electroblotted onto polyvinylidene difluoride membranes (Bio-Rad). […] Bound proteins were detected with horseradish-peroxidase–conjugated secondary antibodies (Cell Signaling Technologies) and SuperSignal West Femto (Thermo Fisher Scientific). […]

MYC [3] = assay: Western blot of MYC in COLO-320DM; assay type: cell-based, human; settings: COLO320DM
Description: as §1, §2

SK-PN-DW cells = assay: Proliferation assay SK-PN-DW; assay type: cell-based, human; settings: si.CircPVT1 vs si.Ctrl, n=3, two-way ANOVA, P<0.0001
Description: Cancer cell lines: COLO-320DM, SK-PN-DW, U2OS, BxPC-3, DU145, SKBR-3 and, NCI-H1792 were obtained from American Type Culture Collection (Rockville, MD) and grown in their required growth medium per the American Type Culture Collection description. D458 and MB002 were obtained from Dr. Michael Taylor’s lab at SickKids hospital, Toronto. Cell line identity for the master stocks were verified by STR genotyping (IDEXX BioResearch)

MYC [4] = assay: Western blot of MYC in SK-PN-DW; assay type: cell-based, human; settings: si.CircPVT1 vs si.Ctrl, n=3, unpaired t test, 0.0049
Description: as §1

Row | Substance | phosphorylation of MEK1/2, ERK1/2 and p90RSK [1] | cellular proliferation (D458 cells; D458, induction of HNB or HNB mutant (+/- Dox)) | cellular proliferation (COLO-320DM cells; induction of HNB (-/+ Dox), P=0.0002) | MYC protein level (MYC [2]; D458, induction of HNB (-/+ Dox)) | MYC protein level (MYC [3]; induction of HNB (-/+ Dox)) | cellular proliferation (D458 cells; D458, transfection with si.CircPVT1 vs si.Ctrl, n=3, two-way ANOVA) | cellular proliferation (COLO-320DM cells; si.CircPVT1 vs si.Ctrl, n=3, two-way ANOVA, P<0.0001) | cellular proliferation (SK-PN-DW cells) | MYC protein (MYC [2]; D458, si.CircPVT1 vs si.Ctrl, n=3, unpaired t test) | MYC protein (MYC [3]; si.CircPVT1 vs si.Ctrl, n=3, unpaired t test, <0.0001) | MYC protein (MYC [4])
1 | MKTQLGAVKGFLHV [HNB] | significantly dampened the phosphorylation | significantly reduced cellular proliferation | significantly reduced cellular proliferation | significantly reduced MYC expression at the mRNA as well as the protein levels | significantly reduced MYC expression at the mRNA as well as the protein levels |  |  |  |  |  | 
2 | si.CircPVT1: siRNA targeting the junction sequence of CircPVT1, 5’-UGGGCUUGAGGCCUGAUCUUU-3’ (other strand not given here) |  |  |  |  |  | reduced cellular proliferation | reduced cellular proliferation | reduced cellular proliferation | significant reduction of MYC protein | significant reduction of MYC protein | significant reduction of MYC protein
